Experimental data taken from patent US7625917B2, “Thiolesters and uses thereof” (priority 1998, dated 2009).
Read-outs that look alike come from different tables or passages of the source.

Columns and labels:
[1] = tested on: HIV-1RF; test: XTT cytoprotection assay (antiviral activity); type: cell-based; details: for EC50: read-out: EC50; for loss of antiviral activity of BITA vs disulfide form, fold decrease: from Table 2
Source text: One exemplary means to determine antiviral activity is with CEM-SS cells and virus (e.g., HIV-1RF) (MOI=0.01) using the XTT (2,3-bis[2-methoxy-4-nitro-5-sulfophenyl]-5-[(phenylamino)carbonyl]-2H-tetrazolium hydroxide) cytoprotection assay, as described by Rice (1993) PNAS 90:9721-9724, and Rice (1997) Antimicrob. Agents Chemother. 41:419-426. Briefly, cells are infected with HIV-1 RF (or other virus to be tested) in the presence of various dilutions of test compounds (thiolesters and controls). The cultures are incubated for seven days. During this time control cultures without protective compounds (i.e., compounds with anti-viral activity) replicate virus, induce syncytia, and result in about 90% cell death. The cell death is measured by XTT dye reduction. XTT is a soluble tetrazolium dye that measures mitochondrial energy output, similar to MTT. Positive controls using dextran sulfate (an attachment inhibitor) or 3′-Azido-2′-3′-dideoxythymidine, AZT (a reverse transcriptase inhibitor) are added to each assay. Individual assays are done in duplicate using a sister plate method.
Effective antiviral concentrations providing 50% cytoprotection (EC50), and cellular growth inhibitory concentrations causing 50% cytotoxicity (IC50) are calculated.

[2] = tested on: CEM-SS cells; test: cells; type: cell-based
Experimental: Agents Chemother. […] Briefly, cells are infected with HIV-1 RF (or other virus to be tested) in the presence of various dilutions of test compounds (thiolesters and controls). The cultures are incubated for seven days. […] The cell death is measured by XTT dye reduction. XTT is a soluble tetrazolium dye that measures mitochondrial energy output, similar to MTT. Positive controls using dextran sulfate (an attachment inhibitor) or 3′-Azido-2′-3′-dideoxythymidine, AZT (a reverse transcriptase inhibitor) are added to each assay. Individual assays are done in duplicate using a sister plate method.

[3] = biological target: T1, recombinant HIV-1 NCp7 protein (Human immunodeficiency virus type 1 group M subtype B, UniProt P03347); test: Trp37 zinc finger fluorescence (zinc ejection) assay; type: biochemical
T1 construct: recombinant HIV-1 NCp7 protein
Experimental: Zinc finger reactivity was measured using a Zn specific fluorochrome, TSQ, N-(6-methoxy-8-quinolyl)-p-toluenesulfonamide, assay or a Trp37 zinc finger fluorescence assay. Fluorescent measurements of the Trp37 residue in the C-terminal finger of recombinant HIV-1 NCp7 protein were performed as described by Rice (1995) Science 270:1194-1197; Rice (1997) Antimicrob. Agents Chemother. 41:419-426. Measurement of Zn ejection from both fingers was measured using the Zn-selective fluorchrome probe TSQ (Molecular Probes, Eugene Oreg.) as described by Rice (1996) J. Med. Chem 39:3606-3616. […] Briefly, 50 nM NCp7 was treated with test compounds for 1 hour at RT in […] buffer containing 10% glycerol and 50 mM Tris-HCl (pH 7.5). Labeled oligomer (0.1 picomole, end labeled [^32P] was added in an equal volume of buffer containing 10% glycerol, 50 mM Tris-HCl (pH 7.5), 400 mM KCl and 40 mM MgCl2. The reaction was continued for 15 min at room temperature, and a total of […] (or ¼ of the total reaction volume) was separated on nondenaturing 4.5% polyacrylamide gels in 0.5× Tris-Borate electrophoresis buffer. NCp7-oligomer complexes were visualized by autoradiography.
Changes in the intrinsic fluorescence of aromatic protein moieties are commonly used to monitor a reaction which involves a change in protein conformation. In the present invention, fluorescence can be used to monitor the loss of metal ion from a zinc finger, e.g., the loss of zinc from a CCHC retroviral zinc finger protein, after contact with a thiolester of the invention. The intrinsic fluorescence of Trp37 in the second zinc finger of HIV-1 NC protein has been used to monitor nucleic acid binding and conformation of the zinc finger complex (see, Summers (1992) supra).
Zinc ejection is measured by the ability of compounds to chemically attack the cysteines in purified NCp7 protein resulting in a loss of fluorescence due to the. movement of the tryptophan 37 residue […] position on the protein. Zinc ejection is measured and expressed as either percent decrease in total fluorescence or decrease in relative fluorescence units per min during a 30 min assay (RFU/min). A thiolester is considered within the scope of the invention if any amount of zinc ejection is detected.

[4] = Table 1, 50% cytotoxicity, read-out: IC50
[5] = Table 2, 50% cytotoxicity, read-out: IC50
[6] = Table 4, 50% cytotoxicity, read-out: IC50

| SMILES | EC50 ([1]; Table 1) | IC50 [2, 4] | further results |
| --- | --- | --- | --- |
| CC(=O)NS(=O)(=O)c1ccc(-n2sc3ccccc3c2=O)cc1 [Compound 2 BITA, N-[4-(3-oxo-3H-benz[d]isothiazol-2-yl)phenylsulfonyl] acetamide] | – | – | EC50 ([1]; Human immunodeficiency virus 1, Table 1): 12.6 µM; IC50 ([2]; Homo sapiens, CEM-SS, Table 1, 50% cytotoxicity, read-out: IC50): 34 µM |
| CC(=O)NS(=O)(=O)c1ccc(NC(=O)c2ccccc2SSc2ccccc2C(=O)Nc2ccc(S(=O)(=O)NC(C)=O)cc2)cc1 [Compound 2 D, N,N′-(2,2′-dithiodibenzoyl)-bis-sulfacetamide] | 1.5 µM | > 200 µM | – |
| O=C(NS(=O)(=O)c1ccc(-n2sc3ccccc3c2=O)cc1)c1ccccc1 [Compound 3 BITA] | 9.3 µM | 49.5 µM | – |
| O=C(NS(=O)(=O)c1ccc(NC(=O)c2ccccc2SSc2ccccc2C(=O)Nc2ccc(S(=O)(=O)NC(=O)c3ccccc3)cc2)cc1)c1ccccc1 [Compound 3 D] | 3.8 µM | 54.1 µM | – |
| O=c1c2ccccc2sn1-c1ccc(S(=O)(=O)Nc2ccc(Cl)nn2)cc1 [Compound 4 BITA] | 7.1 µM | 19.2 µM | – |
| O=C(Nc1ccc(S(=O)(=O)Nc2ccc(Cl)nn2)cc1)c1ccccc1SSc1ccccc1C(=O)Nc1ccc(S(=O)(=O)Nc2ccc(Cl)nn2)cc1 [Compound 4 D] | 2.9 µM | 18.3 µM | – |
| O=c1c2ccccc2sn1-c1ccc(S(=O)(=O)Nc2ncccn2)cc1 [Compound 5 BITA] | 6.5 µM | 50.8 µM | – |
| O=C(Nc1ccc(S(=O)(=O)Nc2ncccn2)cc1)c1ccccc1SSc1ccccc1C(=O)Nc1ccc(S(=O)(=O)Nc2ncccn2)cc1 [Compound 5 D] | 2 µM | 46.4 µM | – |
| COc1cc(NS(=O)(=O)c2ccc(-n3sc4ccccc4c3=O)cc2)nc(OC)n1 [Compound 6 BITA] | 7.6 µM | 56.6 µM | – |
| COc1cc(NS(=O)(=O)c2ccc(NC(=O)c3ccccc3SSc3ccccc3C(=O)Nc3ccc(S(=O)(=O)Nc4cc(OC)nc(OC)n4)cc3)cc2)nc(OC)n1 [Compound 6 D] | 2.1 µM | 52.5 µM | – |
| COc1ccnc(NS(=O)(=O)c2ccc(-n3sc4ccccc4c3=O)cc2)n1 [Compound 7 BITA] | 8.8 µM | 57.4 µM | – |
| COc1ccnc(NS(=O)(=O)c2ccc(NC(=O)c3ccccc3SSc3ccccc3C(=O)Nc3ccc(S(=O)(=O)Nc4nccc(OC)n4)cc3)cc2)n1 [Compound 7 D] | 4.2 µM | 56.7 µM | – |
| COc1cnc(NS(=O)(=O)c2ccc(-n3sc4ccccc4c3=O)cc2)nc1 [Compound 8 BITA] | 17.8 µM | 57.6 µM | – |
| COc1cnc(NS(=O)(=O)c2ccc(NC(=O)c3ccccc3SSc3ccccc3C(=O)Nc3ccc(S(=O)(=O)Nc4ncc(OC)cn4)cc3)cc2)nc1 [Compound 8 D] | 2.1 µM | 55.5 µM | – |
| Cc1cc(C)nc(NS(=O)(=O)c2ccc(-n3sc4ccccc4c3=O)cc2)n1 [Compound 9 BITA] | 6.9 µM | 17.1 µM | – |
| Cc1cc(C)nc(NS(=O)(=O)c2ccc(NC(=O)c3ccccc3SSc3ccccc3C(=O)Nc3ccc(S(=O)(=O)Nc4nc(C)cc(C)n4)cc3)cc2)n1 [Compound 9 D] | 1.6 µM | 32.2 µM | – |
| COc1ccc(NS(=O)(=O)c2ccc(-n3sc4ccccc4c3=O)cc2)nn1 [Compound 12 BITA] | 22.6 µM | 55.3 µM | – |

| SMILES | EC50 ([1]; Table 1) | IC50 [2, 4] | further results |
| --- | --- | --- | --- |
| COc1ccc(NS(=O)(=O)c2ccc(NC(=O)c3ccccc3SSc3ccccc3C(=O)Nc3ccc(S(=O)(=O)Nc4ccc(OC)nn4)cc3)cc2)nn1 [Compound 12 D] | 4.2 µM | 53.8 µM | – |
| O=c1c2ccccc2sn1-c1ccc(S(=O)(=O)Nc2cnc3ccccc3n2)cc1 [Compound 17 BITA] | 9.2 µM | 54.7 µM | – |
| O=C(Nc1ccc(S(=O)(=O)Nc2cnc3ccccc3n2)cc1)c1ccccc1SSc1ccccc1C(=O)Nc1ccc(S(=O)(=O)Nc2cnc3ccccc3n2)cc1 [Compound 17 D] | 0.72 µM | 22.2 µM | – |
| Cc1cc(NS(=O)(=O)c2ccc(-n3sc4ccccc4c3=O)cc2)nc(C)n1 [Compound 19 BITA] | 6.5 µM | 39.7 µM | – |
| Cc1cc(NS(=O)(=O)c2ccc(NC(=O)c3ccccc3SSc3ccccc3C(=O)Nc3ccc(S(=O)(=O)Nc4cc(C)nc(C)n4)cc3)cc2)nc(C)n1 [Compound 19 D] | 1.9 µM | 18.2 µM | – |
| Cc1noc(NS(=O)(=O)c2ccc(-n3sc4ccccc4c3=O)cc2)c1C [Compound 20 BITA] | 12.8 µM | 39 µM | – |
| Cc1noc(NS(=O)(=O)c2ccc(NC(=O)c3ccccc3SSc3ccccc3C(=O)Nc3ccc(S(=O)(=O)Nc4onc(C)c4C)cc3)cc2)c1C [Compound 20 D] | 2.5 µM | 44.2 µM | – |
| NC(N)=NS(=O)(=O)c1ccc(NC(=O)c2ccccc2SSc2ccccc2C(=O)Nc2ccc(S(=O)(=O)N=C(N)N)cc2)cc1 [Compound 21 D] | 111 µM | > 316 µM | – |
| NS(=O)(=O)c1ccc(NS(=O)(=O)c2ccc(-n3sc4ccccc4c3=O)cc2)cc1 [Compound 22 BITA] | 6.2 µM | 18.1 µM | – |
| NS(=O)(=O)c1ccc(NS(=O)(=O)c2ccc(NC(=O)c3ccccc3SSc3ccccc3C(=O)Nc3ccc(S(=O)(=O)Nc4ccc(S(N)(=O)=O)cc4)cc3)cc2)cc1 [Compound 22 D] | 2.3 µM | – | IC50 ([2]; read-out: toxicity / IC50): 43 µM |
| NS(=O)(=O)c1ccc(Cn2sc3ccccc3c2=O)cc1 [Compound 23 BITA] | – | – | EC50 ([1]; Table 2): 13.8 µM; loss of antiviral activity of BITA vs disulfide form, fold decrease [1]: 42 fold; IC50 ([2]; read-out: toxicity / IC50): 53.7 µM |
| NS(=O)(=O)c1ccc(CNC(=O)c2ccccc2SSc2ccccc2C(=O)NCc2ccc(S(N)(=O)=O)cc2)cc1 [Compound 23 D, N,N′-(2,2′-dithiodibenzoyl)-bis-4-(aminomethyl)benzene-sulfonanide] | – | – | zinc finger reactivity / zinc ejection rate [3]: 3.3 RFU/min; EC50 ([1]; Table 2): 0.33 µM; IC50 ([2]; read-out: toxicity / IC50): 19.4 µM |
| NS(=O)(=O)c1ccc(CCn2sc3ccccc3c2=O)cc1 [Compound 24 BITA] | – | – | EC50 ([1]; Table 2): 2 µM; loss of antiviral activity of BITA vs disulfide form, fold decrease [1]: 5 fold; IC50 [2, 5]: 45.5 µM |
| NS(=O)(=O)c1ccc(CCNC(=O)c2ccccc2SSc2ccccc2C(=O)NCCc2ccc(S(N)(=O)=O)cc2)cc1 [Compound 24 D, N,N′-(2,2′-dithiodibenzoyl)-bis-4-(2-aminoethyl)benzene-sulfonamide] | – | – | EC50 ([1]; Table 2): 0.41 µM; IC50 [2, 5]: 52.8 µM |
| Nc1cccc(S(=O)(=O)c2cccc(NC(=O)c3ccccc3SSc3ccccc3C(=O)Nc3cccc(S(=O)(=O)c4cccc(N)c4)c3)c2)c1 [Compound 35] | – | – | zinc finger reactivity / zinc ejection rate [3]: 0.92 RFU/min; IC50 [2, 6]: 81.5 µM |
| CC(=O)Nc1cccc(S(=O)(=O)c2cccc(NC(=O)c3ccccc3SSc3ccccc3C(=O)Nc3cccc(S(=O)(=O)c4cccc(NC(C)=O)c4)c3)c2)c1 [Compound 36] | – | – | zinc finger reactivity / zinc ejection rate [3]: 2 RFU/min; IC50 [2, 6]: 5.9 µM |
| O=C(CCCCBr)Sc1ccccc1C(=O)Nc1ccc(S(=O)(=O)c2ccc(NS(=O)(=O)Cc3ccccc3[N+](=O)[O-])cc2)cc1 [Compound 49] | – | – | Zinc Finger Reactivity RFU/min ([3]; Table 6, average decrease in relative fluorescence units over 30 min): 1.9 RFU/min; IC50 ([2]; Table 6, 50% cytotoxicity, read-out: IC50): > 316 µM |
